What was measured:
[1] = (§1) MMV: Anti-babesial activity assay. Parasite pRBCs at 1% parasitemia were cultivated in 100 ul with 96-well plates at 2.5% and 5% hematocrits. The parasites were cultivated in triplicate for 4 days without replacement of the medium for each concentration of the compound.; format: functional, Babesia caballi
[2] = as §1; format: functional, Babesia equi
[3] = as §1; format: functional, Babesia bigemina
[4] = as §1; format: functional, Babesia bovis

Compound | IC50 [1] [µM] | IC50 [2] [µM] | IC50 [3] [µM] | IC50 [4] [µM]
CCN(CC)CCCNc1nc(-c2ccc(Cl)cc2)nc2ccccc12 | 5.93 | 0.25 | 2.16 | 0.73
CC(=O)Nc1nnc(SCc2c(C)cc(C(C)(C)C)cc2C)s1 | 12.8 | 15.8 | 11.4 | > 25
O=C(NCC(c1ccsc1)N1CCCCCC1)c1ccc(C(F)(F)F)cc1 (stereo not drawn) | 10 | 18.1 | 13.6 | 18.2
O=C(NC1CCCCC1)C(c1cccs1)N(CCc1ccccc1)C(=O)c1ccco1 (stereo not drawn) | 10.7 | 14.1 | 10.7 | 8.8
FC(F)(F)c1cccc(CNC2CCN(CCc3ccccc3)CC2)c1 | 5.35 | 1.87 | 0.36 | 15.6
CCOc1ccc(Nc2ccnc3cc(Cl)ccc23)cc1 | 10 | 15.9 | 0.068 | 0.056
COCCN(C(=O)Cc1cccs1)C(C(=O)NCc1ccc(OC)cc1)c1ccc(C(C)C)cc1 (stereo not drawn) | 17.2 | 5.79 | 13.2 | 25
Oc1ccc(Br)cc1CN1CCN(Cc2cccc(F)c2)CC1 | 14.3 | 13 | > 25 | 17.3
O=c1c2c([nH]c3ccccc13)CCCC2 | 4.09 | 4.27 | 5.93 | 2.45
COC(=O)c1ccc(Cl)c2c1C1C=CCC1C(c1cccc3ccccc13)N2 (stereo not drawn) | 12 | 17.8 | 10 | 15.7
Cc1ccc(NC(=O)Nc2cccc(Cl)c2)cc1F | 0.074 | 14.3 | 10 | 11.1
CCOc1ccccc1CN1CCc2nc3cc(C(C)(C)C)nn3c(O)c2C1 | 0.068 | 10.1 | 9.87 | 20.2
CCCCOC(=O)c1ccc(Nc2cc(C)nc3ccc(OC)cc23)cc1 | 17.8 | 18.1 | 10 | 22.7
COc1ccc(CN2CCN(Cc3ccccc3)CC2)c(O)c1 | 12 | 10 | 15.2 | 8.22
CCOc1ccccc1CNC(=O)C1c2ccccc2C(=O)N(CC(C)C)C1c1cccs1 (stereo not drawn) | 14.3 | 12.4 | 0.1 | 0.83
Oc1ccc2ccccc2c1CNc1nc2ccccc2[nH]1 | 3.04 | 4.37 | 10 | 6.81
Clc1ccc2c(N3CCCC3)ccnc2c1 | 6.86 | 8.83 | 9.15 | 7.09
COc1ccc(C2c3ccc4ccccc4c3Oc3ncn(CCCn4ccnc4)c(=N)c32)cc1OC (stereo not drawn) | 0.41 | 5.68 | 0.1 | 6.3
Cc1cc(Nc2cccc(F)c2)nc(NCc2ccccc2)n1 | 0.1 | 5.06 | 0.093 | 10
CCC(=O)Nc1nnc(Cc2ccc(OC)c(OC)c2)s1 | 4.65 | 12.4 | 10 | 1.29
CCc1ccc(Nc2cc(C)nc3nc(C)nn23)cc1 | 0.074 | 10 | 10 | 13.5

Compound | IC50 [1] [µM] | IC50 [2] [µM] | IC50 [3] [µM] | IC50 [4] [µM]
Cc1ccc(Nc2nc(NCCO)c3ccccc3n2)cc1C | 5 | 2.2 | 6.36 | 3.63
O=C(NCC1Cc2cccc(-c3ccncc3)c2O1)c1csc2c1CCCC2 (stereo not drawn) | 15.3 | 3.7 | 1 | 7.18
CCn1c(SCC(=O)Nc2cc(C(F)(F)F)ccc2Cl)nc2ccccc2c1=O | 14.8 | 15.8 | 3.32 | 25
O=C(NCc1ccco1)C1CCN(S(=O)(=O)c2ccc(Cl)cc2)CC1 | 25 | 7.59 | 13 | > 25
COc1cc2cc(C(=O)Nc3ccccc3)c(N)nc2cc1OC | 6.22 | 3.04 | 21.1 | 0.86
COc1ccc2c(c1)OC(O)(C(F)(F)C(F)(F)F)CC2=O (stereo not drawn) | 11.8 | 17.7 | 15.7 | > 25
CCCc1c(C)nc2ccccc2c1O | 3.7 | 2.4 | 2.96 | 15.3
COc1ccc(C2c3ccc4ccccc4c3Oc3ncn(CCCN(C)C)c(=N)c32)cc1 (stereo not drawn) | 7.26 | 0.49 | 0.033 | 0.052
N=c1n(CCN2CCCCC2)c2ccccc2n1CC(O)c1cccc(Br)c1 (stereo not drawn) | 4.93 | 1.58 | 1 | 3.81
Oc1ccccc1CN1CCC2(CCCN(Cc3ccccc3F)C2)C1 (stereo not drawn) | 5.06 | 0.1 | 0.73 | 14.3
CCCCCCOC(=O)C1=C(C)NC(=O)NC1c1ccccc1F (stereo not drawn) | 4.9 | 15.2 | 14.8 | > 25
Cc1ccc(C2CC(C(F)(F)F)n3nc(C(=O)N4CCN(C(c5ccccc5)c5ccccc5)CC4)cc3N2)cc1 (stereo not drawn) | 0.98 | 12.6 | 15.9 | 9.55
COc1cccc(C=Cc2nc(=O)c3ccccc3o2)c1OC | 22.3 | 16.5 | 20 | > 25
COc1ccc(-c2nc(N3CCN(C(=O)C4CCCCC4)CC3)c3c4c(sc3n2)CCCC4)cc1 | 11.9 | 8.36 | 1 | 1.07
COc1ccccc1CNC(=O)C1c2ccccc2C(=O)N(CC(C)C)C1c1cccs1 (stereo not drawn) | 16.8 | 10 | 10 | 8.25
O=C(NC1CCN(Cc2ccccc2)CC1)c1cc(C(=O)NC2CCN(Cc3ccccc3)CC2)cc(C(=O)NC2CCN(Cc3ccccc3)CC2)c1 | 5.3 | 15.2 | 0.077 | 0.06
COc1cccc(Cn2c(Oc3ccccc3)nc3c2c(=O)n(C)c(=O)n3C)c1 | 5.7 | > 25 | 10 | 10.3
Cc1cc(NC(=O)C2c3ccccc3C(=O)N(CC(C)C)C2c2cccs2)no1 (stereo not drawn) | 13 | 3 | 2.57 | 12.6
COc1ccc(C(=O)Nc2ccc3nc(N4CCCCC4)cc(C)c3c2)cc1OC | 0.51 | 6.99 | 0.46 | 14.3
CCOc1cc(Br)c(C(C)NC(=O)c2cccc(OC)c2)cc1OCC (stereo not drawn) | 13.3 | 12.4 | 25 | 10
CN(C)c1ccc(N=Cc2ccc(N3CCOCC3)cc2)cc1 | 0.043 | 0.63 | 0.068 | 0.068

Compound | IC50 [1] [µM] | IC50 [2] [µM] | IC50 [3] [µM] | IC50 [4] [µM]
CSC1=NC(=Nc2c(C)cccc2C)C2(CCC(C(C)(C)C)CC2)N1c1ccc(Cl)cc1 (stereo not drawn) | 15 | 11.5 | 17.1 | 18.4
CCOC(=O)c1ccc2nc(-c3ccccc3)cc(O)c2c1 | 14.2 | > 25 | 14.1 | > 25
Cn1c(C(=O)c2cccc3ccccc23)nc2ccccc21 | 0.81 | 10 | 12 | 3.73
CCn1nc(-c2ccc(C(=O)OC)cc2)nc2c(=O)n(C)c(=O)nc1-2 | 0.09 | 5.06 | 7.89 | 12.8
CC1CCN(Cc2c(O)ccc3cc(-c4nc5ccccc5s4)c(=O)oc23)CC1 | 3.73 | 4.27 | 5.5 | 6.9
COCCNC(=O)c1ccc(OC2CCN(Cc3ccc(F)c(F)c3)CC2)c(Cl)c1 | 1 | 17.2 | 0.98 | 0.27
CC1CCN(Cc2ccc(NC(=O)c3cc4ccc5cccnc5c4[nH]3)cc2)CC1 | 13.1 | 6.41 | 15.3 | 9.55
COc1ccc2nc(C)cc(Nc3ccc(Cl)cc3)c2c1 | > 25 | 4.29 | 8.15 | 2.4
OC1CCCCC1C1(NC(=S)Nc2ccccc2)CCCCC1 (stereo not drawn) | 14.1 | 5.09 | 0.93 | 1.41
Nc1ccc(-c2nc3cc(Cc4ccc5[nH]c(-c6ccc(N)cc6)nc5c4)ccc3[nH]2)cc1 | 1 | 0.8 | 9.04 | 0.086
Cc1c(C)n(CC(O)CNC2CCCCC2C)c2ccccc12 (stereo not drawn) | 2.49 | 4.76 | 4.09 | 0.1
Cc1ccc(S(=O)(=O)c2c(COC(=O)c3cccc(C)c3)c(-c3ccccc3)nn2C)cc1 | 20.4 | 12.7 | 1 | 0.068
COc1ccc(C(=O)C2CC2c2ccc(Cl)cc2)cc1 (stereo not drawn) | 14.6 | 16.1 | 6.72 | 5.97
CCN(CC)c1cc(C)c2cc(NC(=O)c3cccc(OC)c3)ccc2n1 | 9.33 | 0.46 | 8.99 | 10
CCCCCCc1cc2cc(-c3csc(C=Cc4ccccc4)n3)c(=O)oc2cc1O | 10 | 6.86 | 25 | 5.92
O=C(Nc1cccc(C2=NCCN2)c1)Nc1cccc(C2=NCCN2)c1 [IMIDOCARB] | 0.081 | 0.052 | 0.5 | 0.059
Cc1ccnc(NC(c2cccc(OCc3ccccc3)c2)c2ccc3cccnc3c2O)c1 (stereo not drawn) | 4.17 | 1.4 | 13.8 | 1.9
COc1ccc(/C=C2/SC(=Nc3ccccc3)NC2=O)cc1 | 13.3 | 0.1 | 1 | 4.91
CCOC(=O)c1cnc2ccc(OC)cc2c1NCc1ccccc1 | 5.9 | 14.1 | 1 | 0.72
O=C(Nc1ccc(Cl)cc1C(=O)Nc1ccncc1)c1ccc(Cl)cc1Cl | 5.64 | 3.61 | 19.7 | 10

Reference: ChEMBL document CHEMBL3301464, “MMV Malaria Box anti-babesial screening”
